Source: publication PMC12067444, “Synthesis and Pharmacological Characterization of Novel Peripheral Cannabinoid-1 Receptor Blockers Based on a Tricyclic Scaffold” (Journal of Medicinal Chemistry, 2025)

Columns and labels:
[1] = tested on: mice; experiment: Cataleptic behavior (bar test) induced by WIN-55,212; format: in vivo, mouse; settings: rimonabant 10 mg/kg PO, BNS808 1 mg/kg; 30 min before WIN-55,212 3 mg/kg IP; bar test at 60 min
Procedure: Catalepsy was assayed using the bar test. Mice were taken out of their home cages, and their forepaws were placed on a horizontal bar measuring 0.5 cm in diameter, positioned 4 cm above the bench surface. Typically, vehicle-treated mice released the bar within 2 s. Cataleptic behavior was defined as the mice remaining motionless, grasping onto the bar, with an arbitrary cutoff of 30 s. The CB1R antagonists, including rimonabant at doses 1 and 10 mg/kg and BNS808 at a dose of 1 mg/kg, were administered 30 min before the IP injection of 3 mg/kg WIN-55,212 (a CB1R agonist). The test was conducted 60 min after the administration of the agonist.

[2] = target: T1, CYP2D6 (Homo sapiens, UniProt P10635); experiment: CYP inhibition in human liver microsomes; format: in vitro ADME; settings: probe dextromethorphan, dextromethorphan substrate
T1 construct: from tissue; host or cells: human liver microsomes
Procedure: Human liver microsomes were incubated with the test compounds at 0.2 mg/mL of microsomal protein. The incubation was conducted at 37 °C in the presence of a NADPH (β-Nicotinamide adenine dinucleotide phosphate reduced form) regenerating system at a concentration of approximately 10 mM. To assess CYP inhibition, positive control substrates were utilized, including Phenacetin (1A2 substrate), Diclofenac (2C9 substrate), S-mephenytoin (2C19 substrate), Dextromethorphan (2D6 substrate), and Midazolam (3A4 substrate). The mixture was centrifuged after a 10 min incubation period to precipitate the protein. Subsequently, the samples underwent LC-MS/MS analysis, and the IC50 values were calculated to ascertain the inhibitory potency of the test compounds on specific CYP enzymes.

[3] = tested on: bacteria strains TA98, TA100; experiment: Mini-Ames assay, overall result; format: cell-based
Procedure: (§1) Mini Am es assay. To conduct the assay, top agar was melted with a microwave and maintained at a temper atur e ≥47 °C in a water bath. T he assay was performed using a heat block set to 45 °C ± 2 °C. 12 × 75 mm test tubes were prepared in duplicates. For each concentration, the following components were added sequentially to a test tube:
(§2) […] The mixture was vortexed and then dispensed into w ells using a dispo sable pipette. The plates wer e then incubated at 37±2 °C for approximately 48 to 72 hours.
(§3) BBbbbb BBBBbbbb BBBB = AAAAbbbbbbAAbb nnnnnnbbbbbb bboo bbbbAAbbbbbbbbnnbbbb oobbbb bbbb eeee dd bbbbbb AAbbbbnn gg AAAAbbbbbbAAbb nnnnnnbbbbbb bbBB bbbbAAbbbbbbbbnnbbbb BBbbbb DDDDDDDD nn bbAAbbbbaaAAbb AAbbbbnnaa The mutagenicity of the compound was determined by evaluating the number of revertant colonies in strains TA98 and TA100. A compound was […]
(§4) related and if the fold increase in revertants (F) was equal to or greater than 2 for […]
(§5) background lawn growth on the agar plates. A scoring system ranging from 0 to 4 […]
complete cytotoxicity, while scores 1, 2, and 3 represented 25%, 50%, and 75% growth, respectively. A score of 4 signified full '100%' growth. The background […]
(§6) background lawn and required magnification for visualization. […]

[4] = tested on: TA98; experiment: Mini-Ames assay, strain TA98; format: cell-based; settings: for F value: fold vs DMSO; for Growth of lawn: replicates 1-3
Procedure: as §1, §2, §3, §4, §5
growth, respectively. A score of 4 signified full '100%' growth. […]
as §6

[5] = Stability in simulated gastric fluid (SGF); format: in vitro ADME

T1 sequence (P10635 whole entry): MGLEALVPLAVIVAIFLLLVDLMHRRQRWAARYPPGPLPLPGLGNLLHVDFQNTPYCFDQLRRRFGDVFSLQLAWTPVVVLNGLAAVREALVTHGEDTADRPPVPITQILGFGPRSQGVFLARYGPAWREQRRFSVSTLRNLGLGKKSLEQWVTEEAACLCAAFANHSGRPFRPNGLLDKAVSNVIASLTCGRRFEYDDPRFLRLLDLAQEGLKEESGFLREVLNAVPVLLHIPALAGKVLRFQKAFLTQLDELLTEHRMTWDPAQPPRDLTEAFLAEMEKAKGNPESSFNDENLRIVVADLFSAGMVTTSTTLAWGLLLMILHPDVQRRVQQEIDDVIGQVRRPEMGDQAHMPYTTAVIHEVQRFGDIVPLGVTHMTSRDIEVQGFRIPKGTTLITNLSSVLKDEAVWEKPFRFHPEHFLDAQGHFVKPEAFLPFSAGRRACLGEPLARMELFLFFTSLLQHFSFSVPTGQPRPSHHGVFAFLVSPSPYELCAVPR

Structure (SMILES): O=S(=O)(NC1CCCOc2c1nn(-c1ccccc1Cl)c2-c1ccc(Cl)cc1)c1ccc(Cl)cc1 (centres unmarked) [BNS808, 4-chloro-N-[2-(2-chlorophenyl)-3-(4-chlorophenyl)-5,6,7,8-tetrahydrooxepino[3,2-c]pyrazol-8-yl]benzenesulfonamide]
- blockade of WIN-55,212-induced cataleptic behavior [1]: only rimonabant (10 mg/kg, PO) blocked the cataleptic behavior
- IC50 at 10 min [2]: > 50 µM
- toxicity in mini-Ames assay ([3]; 31.25 to 1000 μg/well, TA98 and TA100): no toxicity
- mini-Ames assay (mutagenic effect) ([3]; TA98 and TA100, with and without S9): nonmutagenic ^b
- Number of revertants MEAN ([4]; TA98, +S9, 31.25 μg/well): 10.67
- solubility ([4]; TA98, +S9, 31.25 μg/well): P0
- F value ([4]; TA98, +S9, 31.25 μg/well): 0.97
- Growth of lawn ([4]; TA98, +S9, 31.25 μg/well): 4 (A score of 4 signified full '100%' growth)
- Number of revertants MEAN ([4]; TA98, +S9, 62.5 μg/well): 11.33
- solubility ([4]; TA98, +S9, 62.5 μg/well): P0
- F value ([4]; TA98, +S9, 62.5 μg/well): 1.03
- Growth of lawn ([4]; TA98, +S9, 62.5 μg/well): 4 (A score of 4 signified full '100%' growth)
- Number of revertants MEAN ([4]; TA98, +S9, 125 μg/well): 11.33
- solubility ([4]; TA98, +S9, 125 μg/well): P0
- F value ([4]; TA98, +S9, 125 μg/well): 1.03
- Growth of lawn ([4]; TA98, +S9, 125 μg/well): 4 (A score of 4 signified full '100%' growth)
- Number of revertants MEAN ([4]; TA98, +S9, 250 μg/well): 13.00
- solubility ([4]; TA98, +S9, 250 μg/well): P1 (0~20% growth of crystals)
- F value ([4]; TA98, +S9, 250 μg/well): 1.18
- Growth of lawn ([4]; TA98, +S9, 250 μg/well): 4 (A score of 4 signified full '100%' growth)
- Number of revertants MEAN ([4]; TA98, +S9, 500 μg/well): 10.00
- solubility ([4]; TA98, +S9, 500 μg/well): P2 (20%~60% growth of crystals)
- F value ([4]; TA98, +S9, 500 μg/well): 0.91
- Growth of lawn ([4]; TA98, +S9, 500 μg/well): 4 (A score of 4 signified full '100%' growth)
- Number of revertants MEAN ([4]; TA98, +S9, 1000 μg/well): 9.67
- solubility ([4]; TA98, +S9, 1000 μg/well): P3 (60%~100% growth of crystals)
- F value ([4]; TA98, +S9, 1000 μg/well): 0.88
- Growth of lawn ([4]; TA98, +S9, 1000 μg/well): 4 (A score of 4 signified full '100%' growth)
- Number of revertants MEAN ([4]; TA98, -S9, 31.25 μg/well): 6.67
- solubility ([4]; TA98, -S9, 31.25 μg/well): P0
- F value ([4]; TA98, -S9, 31.25 μg/well): 0.91
- Growth of lawn ([4]; TA98, -S9, 31.25 μg/well): 4 (A score of 4 signified full '100%' growth)
- Number of revertants MEAN ([4]; TA98, -S9, 62.5 μg/well): 8.67
- solubility ([4]; TA98, -S9, 62.5 μg/well): P0
- F value ([4]; TA98, -S9, 62.5 μg/well): 1.18
- Growth of lawn ([4]; TA98, -S9, 62.5 μg/well): 4 (A score of 4 signified full '100%' growth)
- Number of revertants MEAN ([4]; TA98, -S9, 125 μg/well): 7.33
- solubility ([4]; TA98, -S9, 125 μg/well): P0
- F value ([4]; TA98, -S9, 125 μg/well): 1.00
- Growth of lawn ([4]; TA98, -S9, 125 μg/well): 4 (A score of 4 signified full '100%' growth)
- Number of revertants MEAN ([4]; TA98, -S9, 250 μg/well): 4.00
- solubility ([4]; TA98, -S9, 250 μg/well): P1 (0~20% growth of crystals)
- F value ([4]; TA98, -S9, 250 μg/well): 0.55
- Growth of lawn ([4]; TA98, -S9, 250 μg/well): 4 (A score of 4 signified full '100%' growth)
- Number of revertants MEAN ([4]; TA98, -S9, 500 μg/well): 5.33
- solubility ([4]; TA98, -S9, 500 μg/well): P2 (20%~60% growth of crystals)
- F value ([4]; TA98, -S9, 500 μg/well): 0.73
- Growth of lawn ([4]; TA98, -S9, 500 μg/well): 4 (A score of 4 signified full '100%' growth)
- Number of revertants MEAN ([4]; TA98, -S9, 1000 μg/well): 3.33
- solubility ([4]; TA98, -S9, 1000 μg/well): P3 (60%~100% growth of crystals)
- F value ([4]; TA98, -S9, 1000 μg/well): 0.45
- Growth of lawn ([4]; TA98, -S9, 1000 μg/well): 4 (A score of 4 signified full '100%' growth)
- amount in SGF with pepsin ([5]; 0 h): 2.753 mg
- amount in SGF, no pepsin ([5]; 0 h): 2.826 mg
- Initial amount (%) in SGF with pepsin ([5]; 1 h): 98%
- Initial amount (%) in SGF, no pepsin ([5]; 1 h): 102%
- amount in SGF with pepsin ([5]; 1 h): 2.69 mg
- stability in SGF and SIF ([5]; summary column covering SGF and SIF): stable
- Stability in SGF ([5]; with and without pepsin): Stable
